Data as given in ChEMBL document CHEMBL3826915, “Design and comparative anticonvulsant activity assessment of CNS-active alkyl-carbamoyl imidazole derivatives” (Bioorg Med Chem, 2016).
Activity calls are given as the source filed them. The calls are words filed in the database; no cut-off is given here.

Experiments:
Rattus norvegicus [1] = experiment: Neurotoxicity in albino Sprague-Dawley rat assessed as behavioral impairment at 30 mg/kg, po after 0.5 hrs by rotorod test; format: toxicity, organism-based; conditions: in vivo
Rattus norvegicus [2] = experiment: Neurotoxicity in albino Sprague-Dawley rat assessed as behavioral impairment at 30 mg/kg, po after 2 hrs by rotorod test; format: toxicity, organism-based; conditions: in vivo
Rattus norvegicus [3] = experiment: Neurotoxicity in albino Sprague-Dawley rat assessed as behavioral impairment at 30 mg/kg, ip after 0.5 hrs by rotorod test; format: toxicity, organism-based; conditions: in vivo
Mus musculus [4] = experiment: Neurotoxicity in albino CF1 mouse assessed as behavioral impairment at 30 mg/kg, ip after 0.5 hrs by rotorod test; format: toxicity, organism-based; conditions: in vivo
Rattus norvegicus [5] = experiment: Anticonvulsant activity in albino Sprague-Dawley rat assessed as protection against maximal electroshock-induced seizures at 30 mg/kg, po after 2 hrs; format: functional, organism-based
Mus musculus [6] = experiment: Anticonvulsant activity in albino CF1 mouse assessed as protection against 32 mA current-induced seizure at 300 mg/kg, ip after 0.5 hrs by 6 Hz psychomotor test; format: functional, organism-based
Mus musculus [7] = experiment: Anticonvulsant activity in albino CF1 mouse assessed as protection against 32 mA current-induced seizure at 100 mg/kg, ip after 2 hrs by 6 Hz psychomotor test; format: functional, organism-based
Rattus norvegicus [8] = experiment: Neurotoxicity in albino Sprague-Dawley rat assessed as behavioral impairment at 30 mg/kg, po after 1 hr by rotorod test; format: toxicity, organism-based; conditions: in vivo
Mus musculus [9] = experiment: Neurotoxicity in albino CF1 mouse assessed as behavioral impairment at 100 mg/kg, ip after 2 hrs by rotorod test; format: toxicity, organism-based; conditions: in vivo
Rattus norvegicus [10] = experiment: Neurotoxicity in albino Sprague-Dawley rat assessed as behavioral impairment at 30 mg/kg, ip after 1 hr by rotorod test; format: toxicity, organism-based; conditions: in vivo
Rattus norvegicus [11] = experiment: Anticonvulsant activity in albino Sprague-Dawley rat assessed as protection against maximal electroshock-induced seizures at 30 mg/kg, po after 1 hr; format: functional, organism-based
Mus musculus [12] = experiment: Anticonvulsant activity in albino CF1 mouse assessed as protection against maximal electroshock-induced seizures at 30 mg/kg, ip after 0.5 hrs; format: functional, organism-based
Mus musculus [13] = experiment: Anticonvulsant activity in albino CF1 mouse assessed as protection against maximal electroshock-induced seizures at 300 mg/kg, ip after 2 hrs; format: functional, organism-based
Rattus norvegicus [14] = experiment: Neurotoxicity in albino Sprague-Dawley rat assessed as behavioral impairment at 30 mg/kg, po after 0.25 hrs by rotorod test; format: toxicity, organism-based; conditions: in vivo
Mus musculus [15] = experiment: Neurotoxicity in albino CF1 mouse assessed as behavioral impairment at 30 mg/kg, ip after 2 hrs by rotorod test; format: toxicity, organism-based; conditions: in vivo
Mus musculus [16] = experiment: Anticonvulsant activity in albino CF1 mouse assessed as protection against maximal electroshock-induced seizures at 300 mg/kg, ip after 0.5 hrs; format: functional, organism-based
Mus musculus [17] = experiment: Anticonvulsant activity in albino CF1 mouse assessed as protection against 32 mA current-induced seizure at 100 mg/kg, ip after 0.5 hrs by 6 Hz psychomotor test; format: functional, organism-based
Mus musculus [18] = experiment: Anticonvulsant activity in albino CF1 mouse assessed as protection against 32 mA current-induced seizure at 300 mg/kg, ip after 2 hrs by 6 Hz psychomotor test; format: functional, organism-based
Rattus norvegicus [19] = experiment: Neurotoxicity in albino Sprague-Dawley rat assessed as behavioral impairment at 30 mg/kg, ip after 0.25 hrs by rotorod test; format: toxicity, organism-based; conditions: in vivo
Mus musculus [20] = experiment: Anticonvulsant activity in albino CF1 mouse assessed as protection against maximal electroshock-induced seizures at 100 mg/kg, ip after 2 hrs; format: functional, organism-based
Rattus norvegicus [21] = experiment: Anticonvulsant activity in albino Sprague-Dawley rat assessed as protection against maximal electroshock-induced seizures at 30 mg/kg, po after 0.5 hrs; format: functional, organism-based
Rattus norvegicus [22] = experiment: Neurotoxicity in albino Sprague-Dawley rat assessed as behavioral impairment at 30 mg/kg, ip after 2 hrs by rotorod test; format: toxicity, organism-based; conditions: in vivo
Mus musculus [23] = experiment: Anticonvulsant activity in albino CF1 mouse assessed as protection against 32 mA current-induced seizure at 30 mg/kg, ip after 0.5 hrs by 6 Hz psychomotor test; format: functional, organism-based
Mus musculus [24] = experiment: Anticonvulsant activity in albino CF1 mouse assessed as protection against maximal electroshock-induced seizures at 30 mg/kg, ip after 2 hrs; format: functional, organism-based
Mus musculus [25] = experiment: Anticonvulsant activity in albino CF1 mouse assessed as protection against 32 mA current-induced seizure at 30 mg/kg, ip after 2 hrs by 6 Hz psychomotor test; format: functional, organism-based
Mus musculus [26] = experiment: Anticonvulsant activity in albino CF1 mouse assessed as protection against maximal electroshock-induced seizures at 100 mg/kg, ip after 0.5 hrs; format: functional, organism-based
Rattus norvegicus [27] = experiment: Anticonvulsant activity in albino Sprague-Dawley rat assessed as protection against maximal electroshock-induced seizures at 30 mg/kg, ip after 2 hrs; format: functional, organism-based
Mus musculus [28] = experiment: Neurotoxicity in albino CF1 mouse assessed as behavioral impairment at 300 mg/kg, ip after 0.5 hrs by rotorod test; format: toxicity, organism-based; conditions: in vivo
Rattus norvegicus [29] = experiment: Anticonvulsant activity in albino Sprague-Dawley rat assessed as protection against maximal electroshock-induced seizures at 30 mg/kg, po after 0.25 hrs; format: functional, organism-based
Mus musculus [30] = experiment: Neurotoxicity in albino CF1 mouse assessed as behavioral impairment at 300 mg/kg, ip after 2 hrs by rotorod test; format: toxicity, organism-based; conditions: in vivo
Rattus norvegicus [31] = experiment: Anticonvulsant activity in albino Sprague-Dawley rat assessed as protection against maximal electroshock-induced seizures at 30 mg/kg, ip after 1 hr; format: functional, organism-based
Mus musculus [32] = experiment: Anticonvulsant activity in ip dosed albino CF1 mouse assessed as protection against 6 Hz current-induced seizure by measuring time to peak effect; format: functional
Mus musculus [33] = experiment: Anticonvulsant activity in ip dosed albino CF1 mouse assessed as protection against subcutaneous metrazol-induced seizures by measuring time to peak effect; format: functional
Mus musculus [34] = experiment: Anticonvulsant activity in ip dosed albino CF1 mouse assessed as protection against subcutaneous metrazol-induced seizures; format: functional
Mus musculus [35] = experiment: Anticonvulsant activity in ip dosed albino CF1 mouse assessed as protection against maximal electroshock-induced seizures by measuring time to peak effect; format: functional
[36] = Neurotoxicity in ip dosed albino CF1 mouse assessed as motor impairment by rotorod test; format: toxicity, organism-based; conditions: in vivo
[37] = Protective index, ratio of TD50 for neurotoxicity in ip dosed albino CF1 mouse to ED50 for anticonvulsant activity in ip dosed maximal electroshock-induced seizure albino CF1 mouse model; format: toxicity, organism-based; conditions: in vivo, read-out: Ratio TD50/ED50
Mus musculus [38] = experiment: Anticonvulsant activity in ip dosed albino CF1 mouse assessed as protection against maximal electroshock-induced seizures; format: functional
[39] = Protective index, ratio of TD50 for neurotoxicity in ip dosed albino CF1 mouse to ED50 for anticonvulsant activity in ip dosed […] metrazol-induced seizure albino CF1 mouse model; format: toxicity, organism-based; conditions: in vivo, read-out: Ratio TD50/ED50
Mus musculus [40] = experiment: Anticonvulsant activity in ip dosed albino CF1 mouse assessed as protection against 6 Hz current-induced seizures by psychomotor test; format: functional
Rattus norvegicus [41] = experiment: Anticonvulsant activity in albino Sprague-Dawley rat assessed as protection against maximal electroshock-induced seizures at 30 mg/kg, ip after 0.5 hrs; format: functional, organism-based
Rattus norvegicus [42] = experiment: Anticonvulsant activity in albino Sprague-Dawley rat assessed as protection against maximal electroshock-induced seizures at 30 mg/kg, ip after 0.25 hrs; format: functional, organism-based

CC(C)(C)COC(=O)NCCCn1ccnc1
Activity (Rattus norvegicus [1]): Non-toxic
Activity (Rattus norvegicus [2]): Non-toxic
Activity (Rattus norvegicus [3]): Non-toxic
Activity (Mus musculus [4]): Non-toxic
Activity (Rattus norvegicus [5]): inactive
Activity (Mus musculus [6]): inactive
Activity (Mus musculus [7]): inactive
Activity (Rattus norvegicus [8]): Non-toxic
Activity (Mus musculus [9]): Non-toxic
Activity (Rattus norvegicus [10]): Non-toxic
Activity (Rattus norvegicus [11]): inactive
Activity (Mus musculus [12]): inactive
Activity (Mus musculus [13]): Active
Activity (Rattus norvegicus [14]): Non-toxic
Activity (Mus musculus [15]): Non-toxic
Activity (Mus musculus [16]): inactive
Activity (Mus musculus [17]): inactive
Activity (Mus musculus [18]): inactive
Activity (Rattus norvegicus [19]): Non-toxic
Activity (Mus musculus [20]): Active
Activity (Rattus norvegicus [21]): inactive
Activity (Rattus norvegicus [22]): Non-toxic
Activity (Mus musculus [23]): inactive
Activity (Mus musculus [24]): inactive
Activity (Mus musculus [25]): inactive

CC(C)(C)CCOC(=O)NCCCn1ccnc1
Activity (Rattus norvegicus [1]): Non-toxic
Activity (Rattus norvegicus [2]): Non-toxic
Activity (Rattus norvegicus [3]): Non-toxic
Activity (Mus musculus [4]): Non-toxic
Activity (Rattus norvegicus [5]): inactive
Activity (Rattus norvegicus [8]): Non-toxic
Activity (Mus musculus [26]): Active
Activity (Mus musculus [9]): Non-toxic
Activity (Rattus norvegicus [27]): inactive
Activity (Rattus norvegicus [10]): Non-toxic
Activity (Rattus norvegicus [11]): inactive
Activity (Mus musculus [28]): Toxic
Activity (Rattus norvegicus [29]): inactive
Activity (Rattus norvegicus [14]): Non-toxic
Activity (Mus musculus [15]): Non-toxic
Activity (Mus musculus [30]): Toxic
Activity (Rattus norvegicus [19]): Non-toxic
Activity (Mus musculus [20]): Active
Activity (Rattus norvegicus [21]): inactive
Activity (Rattus norvegicus [22]): Non-toxic
Activity (Mus musculus [23]): inactive
Activity (Mus musculus [24]): inactive
Activity (Mus musculus [25]): inactive

CCC(C)C(C)OC(=O)NCCCn1ccnc1 (stereo not given)
Activity (Rattus norvegicus [1]): Non-toxic
Activity (Rattus norvegicus [2]): Non-toxic
Activity (Rattus norvegicus [3]): Non-toxic
Activity (Mus musculus [4]): Non-toxic
Activity (Rattus norvegicus [5]): inactive
Activity (Rattus norvegicus [31]): inactive
Activity (Mus musculus [7]): inactive
Activity (Rattus norvegicus [8]): Non-toxic
Activity (Mus musculus [26]): Active
Activity (Mus musculus [9]): Non-toxic
Activity (Rattus norvegicus [27]): inactive
Activity (Rattus norvegicus [10]): Non-toxic
Activity (Mus musculus [28]): Toxic
Activity (Rattus norvegicus [29]): inactive
Activity (Mus musculus [12]): inactive
Activity (Rattus norvegicus [14]): Non-toxic
Activity (Mus musculus [15]): Non-toxic
Activity (Mus musculus [16]): Active
Activity (Rattus norvegicus [19]): Non-toxic
Activity (Mus musculus [20]): Active
Activity (Rattus norvegicus [21]): inactive
Activity (Rattus norvegicus [22]): Non-toxic
Activity (Mus musculus [23]): inactive
Activity (Mus musculus [24]): inactive
Activity (Mus musculus [25]): inactive

CCCC(CCC)C(=O)O [VALPROIC ACID]
Time (Mus musculus [32]): 0.5 h
Time (Mus musculus [33]): 0.5 h
ED50 (Mus musculus [34]): 646 mg/kg
Time (Mus musculus [35]): 0.5 h
TD50 [36]: 784 mg/kg

CCCCC(CC)COC(=O)NCCCn1ccnc1 (stereo not given)
Activity (Mus musculus [4]): Non-toxic
Activity (Mus musculus [7]): inactive
Activity (Mus musculus [26]): Active
Activity (Mus musculus [9]): Non-toxic
Activity (Mus musculus [28]): Toxic
Activity (Mus musculus [12]): inactive
Activity (Mus musculus [15]): Non-toxic
Activity (Mus musculus [30]): Toxic
Activity (Mus musculus [23]): inactive
Activity (Mus musculus [24]): inactive
Activity (Mus musculus [25]): inactive

NC(=O)OCC(COC(N)=O)c1ccccc1 [FELBAMATE]
selectivity ratio [37]: > 20
Time (Mus musculus [32]): 0.5 h
Time (Mus musculus [33]): 0.5 h
ED50 (Mus musculus [38]): 25 mg/kg
ED50 (Mus musculus [34]): > 250 mg/kg
Time (Mus musculus [35]): 0.5 h
TD50 [36]: > 500 mg/kg

O=C(NCCCn1ccnc1)OCCc1ccccc1
selectivity ratio [37]: 5.5
Activity (Rattus norvegicus [1]): Non-toxic
Activity (Rattus norvegicus [2]): Non-toxic
Activity (Rattus norvegicus [3]): Non-toxic
Activity (Mus musculus [4]): Non-toxic
Activity (Rattus norvegicus [5]): inactive
Time (Mus musculus [32]): 0.5 h
Activity (Rattus norvegicus [8]): Non-toxic
Activity (Mus musculus [26]): Active
selectivity ratio [39]: 0.96
Time (Mus musculus [33]): 0.5 h
ED50 (Mus musculus [38]): 14 mg/kg
ED50 (Mus musculus [34]): > 80 mg/kg
Activity (Mus musculus [9]): Non-toxic
ED50 (Mus musculus [40]): inactive
Activity (Rattus norvegicus [10]): Non-toxic
Activity (Mus musculus [28]): Toxic
Activity (Mus musculus [12]): Active
Time (Mus musculus [35]): 0.5 h
Activity (Mus musculus [13]): Active
Activity (Rattus norvegicus [14]): Non-toxic
Activity (Mus musculus [15]): Non-toxic
Activity (Mus musculus [16]): Active
Activity (Mus musculus [17]): Active
Activity (Mus musculus [30]): Toxic
Activity (Rattus norvegicus [19]): Non-toxic
Activity (Mus musculus [20]): Active
Activity (Rattus norvegicus [41]): Active
Activity (Rattus norvegicus [42]): Active
Activity (Rattus norvegicus [22]): Non-toxic
Activity (Mus musculus [23]): inactive
Activity (Mus musculus [24]): inactive
TD50 [36]: 77 mg/kg
Activity (Mus musculus [25]): inactive
